Like-named read-outs stand apart in the source and are kept apart here. Starred links: 1 amine or outer side, 2 acyl side, 3 side chain; linkers in the order of their positions; H or OH if unused. Positions of bridges follow the written chain, without caps; N, C: chain ends. Non-standard residues stand in square brackets, D forms with d. Residues, ends and D or L forms follow the SMILES beside them. Chains are numbered I, II in the order given. Actinocin(9to1) = Cc1c2oc3c(C)ccc(C(=O)[*:1])c3nc-2c(C(=O)[*:2])c(N)c1=O; NMeV = CN[C@H](C(=O)O)C(C)C; Sar = CNCC(=O)O
Assays:
[1] = system: Cyclin D1 promoter (Cyclin D1-luc) in MDA-MB-468 cells; assay: EGF activation of Cyclin D1 promoter luciferase reporter; format: cell-based; details: EGF 100 ng/ml
From the text: In FIG. 7A, MDA-MB-468 cells were transfected with a luciferase vector containing the cyclin D1 promoter with two intact ATRS or the same promoter with the ATRS mutated. […] After precipitation with the EGFR antibodies (1 Santa Cruz, 2 NeoMarkers) or normal rabbit IgG, cyclin D1 promoter region was amplified by PCR. Input nuclear DNA (In) or water (dw) were used as PCR controls.
Targets for nuclear EGFR were identified. Since nuclear EGFR correlated with highly proliferative activity of cells, it was suspected that its target genes were likely involved in cell proliferation. One of the candidates, Cyclin D1, is a cell-cycle regulator essential for G1 phase progression. […] Two ATRS sequences are located in the proximal region of Cyclin D1 promoter between nucleotide −74 to −70 (TTTAT; SEQ ID NO:3) and −31 to −27 (TTTGT; SEQ ID NO:4), respectively. To test whether these two ATRS in Cyclin D1 promoter were responsive to EGFR activity, the reporter gene containing 163 bp of the Cyclin Dl promoter (Cyclin D1-luc) was tested. Many known transcription factor-binding sites had been eliminated from this construct but it still contained two ATRS described above.

[2] = system: ATRS (AT-rich consensus sequence) luciferase reporter with TK minimal promoter; assay: EGF activation of ATRS luciferase reporter; format: cell-based
From the text: (FIG. 6A) A431, (FIG. 6B) MDA-MB-468, (FIG. 6C) HBL 100, and (FIG. 6D) CHO cells.
Next, four repeats of either the ATRS sites or the mutated sites were constructed in a luciferase reporter construct containing the mouse thymidine kinase gene (TK) minimal promoter. […] EGFR-dependent activation, however, could be restored in these two cell lines upon the cotransfection of the EGFR expression vector. Thus, the ATRS, which can bind to nuclear EGFR complex, responds to EGFR-dependent activation, whereas the mutant ATRS, which fails to bind to nuclear EGFR, loses it ability to respond to the EGFR-dependent activation.
Plasmids and transfection. The cytoplasmic domain (645-1186), tyrosine kinase domain (645-1011), and C-terminal proline rich region (1011-1086) of human EGFR were amplified by PCR and subcloned in frame into pSG424 to generate for each domain a fusion protein containing GAL4 DNA binding proteins. The fusion protein constructs were then transfected into a variety of cell lines along with GAL4CAT or GAL4Luc reporter plasmids via liposomal DC-Cole provide by Dr. Leaf Huang at University of Pittsburgh.

[3] = cited from earlier work
[4] = cited from earlier work; for dose excreted/detected intact in the urine: in vivo; for half-life of disappearance from plasma: after intravenous injection, after distribution; for binding to plasma proteins: result in words
[5] = EGFR-overexpressing cell lines A431 and MDA-MB-468, EGF 100 ng/ml

EGF: epidermal growth factor, ligand for EGFR
activation of Cyclin D1-luc(m) reporter with both ATRS mutated [1]: abolished
activation of wild-type Cyclin D1-luc reporter [1]: up to four fold
activation of mutant ATRS reporter construct [2, 5]: only weakly activate
activation of wild-type ATRS reporter construct [2, 5]: strongly activate
activation of wild type or mutant ATRS reporter ([2]; cells with low (HBL100) or no EGFR (CHO), EGF 100 ng/ml): neither wild type nor the mutant reporter could be activated

O=NN(CCCl)C(=O)NC1CCCCC1 [Lomustine, 1-(2-chloro-ethyl)-3-cyclohexyl-1 nitrosourea]
solubility ([3]; 10% ethanol): 0.05 mg per mL
solubility ([3]; absolute alcohol): 70 mg per mL
solubility ([3]; water): < 0.05 mg per mL
tissue levels relative to plasma levels ([4]; 15 minutes after intravenous administration): comparable to plasma levels

Cc1c2oc3c(C)ccc(C(=O)N[C@@H]4C(=O)N[C@H](C(C)C)C(=O)N5CCC[C@H]5C(=O)N(C)CC(=O)N(C)[C@@H](C(C)C)C(=O)O[C@@H]4C)c3nc-2c(C(=O)N[C@@H]2C(=O)N[C@H](C(C)C)C(=O)N3CCC[C@H]3C(=O)N(C)CC(=O)N(C)[C@@H](C(C)C)C(=O)O[C@@H]2C)c(N)c1=O [Actinomycin D] (I: T[dV]P[Sar][NMeV] / II: T[dV]P[Sar][NMeV]; ester I:1-I:C, II:1-II:C; linker I:N-II:N via Actinocin(9to1))
dose excreted/detected intact in the urine [4]: 10%

O=NN(CCCl)C(=O)NCCCl [Carmustine, 1,3bis (2-chloroethyl)-1-nitrosourea]
solubility in organic solvents / alcohol and lipids ([3]; result in words): highly soluble in alcohol and lipids

CC[C@]1(O)C[C@@H]2CN(CCc3c([nH]c4ccccc34)[C@@](C(=O)OC)(c3cc4c(cc3OC)N(C)[C@H]3[C@@](O)(C(=O)OC)[C@H](OC(C)=O)[C@]5(CC)C=CCN6CC[C@]43[C@@H]65)C2)C1 [Vinblastine]
half-life of disappearance from plasma ([4]; first of two half-lives): approximately 1 hours
half-life of disappearance from plasma ([4]; second of two half-lives): ~20 h
dose excreted/detected intact in the urine [4]: Approximately 15%
binding to plasma proteins [4]: bind to plasma proteins

CC[C@]1(O)C[C@H]2CN(CCc3c([nH]c4ccccc34)[C@@](C(=O)OC)(c3cc4c(cc3OC)N(C=O)[C@H]3[C@@](O)(C(=O)OC)[C@H](OC(C)=O)[C@]5(CC)C=CCN6CC[C@]43[C@@H]65)C2)C1 [Vincristine]
binding to plasma proteins [4]: bind to plasma proteins

Reference: US20030053995A1 (priority 2001, published 2003)
